Assay results published in patent US8962671B2, “Amino-substituted 3-heteroaroylamino-propionic acid derivatives and their use as pharmaceuticals” (Sanofi, priority 2011, dated 2015).

Biological target: T1, Recombinant human cathepsin A (Homo sapiens, UniProt P10619)
T1 construct: Recombinant human cathepsin A (residues 29-480, with a C-terminal 10-His tag); 10-His (C); purchased R&D Systems 1049-SE
T1 sequence (P10619 29-326 limits assumed): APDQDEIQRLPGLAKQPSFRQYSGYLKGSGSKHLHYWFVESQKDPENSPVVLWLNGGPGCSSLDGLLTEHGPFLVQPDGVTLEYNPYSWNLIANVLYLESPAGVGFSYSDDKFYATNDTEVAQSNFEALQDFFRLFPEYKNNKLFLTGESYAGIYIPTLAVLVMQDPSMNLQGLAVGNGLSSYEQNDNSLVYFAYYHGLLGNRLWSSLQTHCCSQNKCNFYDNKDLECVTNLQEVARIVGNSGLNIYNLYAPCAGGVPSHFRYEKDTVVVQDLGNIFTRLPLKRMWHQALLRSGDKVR
T1 sequence (P10619 327-480 limits assumed): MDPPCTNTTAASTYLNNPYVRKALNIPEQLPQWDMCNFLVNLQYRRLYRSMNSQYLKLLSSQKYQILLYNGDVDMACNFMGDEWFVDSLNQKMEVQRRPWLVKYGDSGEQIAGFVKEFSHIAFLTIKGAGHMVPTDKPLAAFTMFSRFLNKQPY
Test: Cathepsin A inhibitory activity
Assay type: biochemical
Details: activated recombinant human cathepsin A 833 ng/ml, Bodipy FL-labeled bradykinin 2 μM, pH 5.5, 15 min room temperature
Description: a) Cathepsin a Inhibitory Activity
Recombinant human cathepsin A (residues 29-480, with a C-terminal 10-His tag; R&D Systems, #1049-SE) was proteolytically activated with recombinant human cathepsin L (R&D Systems, #952-CY). Briefly, cathepsin A was incubated at 10 μg/ml with cathepsin L at 1 μg/ml in activation buffer (25 mM 2-(morpholin-4-yl)-ethanesulfonic acid (MES), pH 6.0, containing 5 mM dithiothreitol (DTT)) for 15 min at 37° C. Cathepsin L activity was then stopped by the addition of the cysteine protease inhibitor E-64 (N-(trans-epoxysuccinyl)-L-leucine-4-guanidinobutylamide; Sigma-Aldrich, #E3132; dissolved in activation buffer/DMSO) to a final concentration of 10 μM.
The activated cathepsin A was diluted in assay buffer (25 mM MES, pH 5.5, containing 5 mM DTT) and mixed with the test compound (dissolved in assay buffer containing (v/v) 3% DMSO) or, in the control experiments, with the vehicle in a multiple assay plate. After incubation for 15 min at room temperature, as substrate then bradykinin carrying an N-Terminal®Bodipy FL (4,4-difluoro-5,7-dimethyl-4-bora-3a,4a-diaza-s-indacene-3-propionyl) label (JPT Peptide Technologies GmbH; dissolved in assay buffer) was added to the mixture. The final concentration of cathepsin A was 833 ng/ml and the final concentration of labeled bradykinin 2 μM. After incubation for 15 min at room temperature the reaction was stopped by the addition of stop buffer (130 mM 2-(4-(2-hydroxy-ethyl)-piperazin-1-yl)-ethanesulfonic acid, pH 7.4, containing (v/v) 0.013%®Triton X-100, 0.13% Coating Reagent 3 (Caliper Life Sciences), 6.5% DMSO and 20 μM ebelactone B (Sigma, #E0886)).
Uncleaved substrate and product were then separated by a microfluidic capillary electrophoresis on a LabChip® 3000 Drug Discovery System (12-Sipper-Chip; Caliper Life Sciences) and quantified by determination of the respective peak areas. Substrate turnover was calculated by dividing product peak area by the sum of substrate and product peak areas, and the enzyme activity and the inhibitory effect of the test compound thus quantified. From the percentage of inhibition of cathepsin A activity observed with the test compound at several concentrations, the inhibitory concentration IC50, i.e. the concentration which effects 50% inhibition of enzyme activity was, calculated.

Q: How did the IC50 turn out when `O=C(O)CC(NC(=O)c1cc2[nH]c3ccccc3n2n1)c1ccc(F)cc1` (centres unmarked) [Example 34, 3-[(4H-Benzo[4,5]imidazo[1,2-b]pyrazole-2-carbonyl)-amino]-3-(4-fluoro-phenyl)-propionic acid] was run?
A: 2.52 µM

Q: `Cc1ccccc1C(CC(=O)O)NC(=O)c1cc2[nH]c3ccccc3n2n1` (centres unmarked) [Example 35, 3-[(4H-Benzo[4,5]imidazo[1,2-b]pyrazole-2-carbonyl)-amino]-3-o-tolyl-propionic acid] was tested. Which IC50 did it give?
A: 0.9 µM

Q: For `N#Cc1cccc([C@H](CC(=O)O)NC(=O)c2cc3[nH]c4ccccc4n3n2)c1` [Example 37, (S)-3-[(4H-Benzo[4,5]imidazo[1,2-b]pyrazole-2-carbonyl)-amino]-3-(3-cyano-phenyl)-propionic acid], which IC50 is on record?
A: 3.57 µM

Q: How did the IC50 turn out when `Cc1ccccc1[C@H](CC(=O)O)NC(=O)c1cc2[nH]c3ccccc3n2n1` [Example 38, (S)-3-[(4H-Benzo[4,5]imidazo[1,2-b]pyrazole-2-carbonyl)-amino]-3-o-tolyl-propionic acid] was run?
A: 0.219 µM

Q: With `Cc1cccc([C@H](CC(=O)O)NC(=O)c2cc3[nH]c4ccccc4n3n2)c1` [Example 39, (S)-3-[(4H-Benzo[4,5]imidazo[1,2-b]pyrazole-2-carbonyl)-amino]-3-m-tolyl-propionic acid] as the compound, how does the IC50 read?
A: 0.94 µM

Q: For `O=C(O)C[C@H](NC(=O)c1cc2[nH]c3ccccc3n2n1)c1ccccc1F` [Example 40, (S)-3-[(4H-Benzo[4,5]imidazo[1,2-b]pyrazole-2-carbonyl)-amino]-3-(2-fluoro-phenyl)-propionic acid], which IC50 is on record?
A: 1.17 µM

Q: For `O=C(O)C[C@H](NC(=O)c1cc2[nH]c3ccccc3n2n1)c1ccccc1` [Example 41, (S)-3-[(4H-Benzo[4,5]imidazo[1,2-b]pyrazole-2-carbonyl)-amino]-3-phenyl-propionic acid], which IC50 is on record?
A: 1.23 µM

Q: Which IC50 does the source give for `CC(C)(CC(=O)O)NC(=O)c1cc2[nH]c3ccccc3n2n1` [Example 43, 3-[(4H-Benzo[4,5]imidazo[1,2-b]pyrazole-2-carbonyl)-amino]-3-methyl-butyric acid] here?
A: 5.18 µM

Q: How did the IC50 turn out when `O=C(O)C[C@H](NC(=O)c1cc2[nH]c3ccccc3n2n1)c1ccccc1Cl` [Example 49, (S)-3-[(4H-Benzo[4,5]imidazo[1,2-b]pyrazole-2-carbonyl)-amino]-3-(2-chloro-phenyl)-propionic acid] was run?
A: 0.392 µM

Q: With `Cc1ccccc1[C@H](CC(=O)O)NC(=O)c1cc(NCC2CC2)n(-c2ccccc2)n1` [Example 50, (S)-3-{[5-(Cyclopropylmethyl-amino)-1-phenyl-1H-pyrazole-3-carbonyl]-amino}-3-o-tolyl-propionic acid] as the compound, how does the IC50 read?
A: 0.049 µM

Q: Which IC50 does the source give for `Cc1ccccc1[C@H](CC(=O)O)NC(=O)c1cc(N(CC2CC2)CC2CC2)n(-c2ccccc2)n1` [Example 51, (S)-3-{[5-(Bis-cyclopropylmethyl-amino)-1-phenyl-1H-pyrazole-3-carbonyl]-amino}-3-o-tolyl-propionic acid] here?
A: 0.524 µM

Q: For `Cc1ccccc1[C@H](CC(=O)O)NC(=O)c1cc(NC(=O)C(C)(C)C)n(-c2ccccc2)n1` [Example 52, (S)-3-{[5-(2,2-Dimethyl-propionylamino)-1-phenyl-1H-pyrazole-3-carbonyl]-amino}-3-o-tolyl-propionic acid], which IC50 is on record?
A: 0.0286 µM

Q: With `CC(C)(C)C(=O)Nc1cc(C(=O)N[C@@H](CC(=O)O)c2ccc(Cl)cc2Cl)nn1-c1ccccc1` [Example 53, (S)-3-(2,4-Dichloro-phenyl)-3-{[5-(2,2-dimethyl-propionylamino)-1-phenyl-1H-pyrazole-3-carbonyl]-amino}-propionic acid] as the compound, how does the IC50 read?
A: 0.0271 µM

Q: Which IC50 does the source give for `CC(C)(C)C(=O)Nc1cc(C(=O)N[C@@H](CC(=O)O)c2ccccc2Cl)nn1-c1ccccc1` [Example 54, (S)-3-(2-Chloro-phenyl)-3-{[5-(2,2-dimethyl-propionylamino)-1-phenyl-1H-pyrazole-3-carbonyl]-amino}-propionic acid] here?
A: 0.0313 µM
